According to publication PMC7508162 (Frontiers in Pharmacology, 2020):

How the values were obtained:
NTPDase8 = biological target: T1, NTPDase8 (Homo sapiens, UniProt Q5MY95); assay: Malachite green assay for NTPDase8; type: biochemical; design: expressed in transfected cells; host or cells: COS-7 cell membrane preparations; conditions: for Ki: ATP 50 µM, recombinant COS-7 cell membrane preparation, read-out: Ki ± SEM; for % inhibition: test concentration not given
T1 sequence (Q5MY95 1-495): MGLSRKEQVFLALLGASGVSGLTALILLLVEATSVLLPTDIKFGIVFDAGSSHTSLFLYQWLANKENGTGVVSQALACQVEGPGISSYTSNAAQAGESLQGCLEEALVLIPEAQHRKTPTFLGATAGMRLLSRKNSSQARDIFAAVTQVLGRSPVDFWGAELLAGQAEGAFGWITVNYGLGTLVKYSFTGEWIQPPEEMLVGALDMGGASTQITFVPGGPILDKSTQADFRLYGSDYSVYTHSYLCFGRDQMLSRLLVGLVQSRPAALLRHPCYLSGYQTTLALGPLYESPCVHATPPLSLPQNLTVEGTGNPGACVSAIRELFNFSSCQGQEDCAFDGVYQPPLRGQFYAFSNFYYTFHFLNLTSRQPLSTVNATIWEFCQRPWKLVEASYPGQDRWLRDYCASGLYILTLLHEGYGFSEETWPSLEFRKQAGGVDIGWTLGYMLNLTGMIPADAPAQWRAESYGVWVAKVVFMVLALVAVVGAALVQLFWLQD
Method: (§1) The enzymatic activity assay was determined essentially as previously described ([Cogan et al., 1999]) with a few adaptations. The reaction buffer contained 10 mM HEPES, 2 mM CaCl2, 1 mM MgCl2, pH 7.4 in a final volume of 50 μl in transparent 96-well half area plates. For CD39 (NTPDase1), we made use of human umbilical cord membranes preparations which express high levels of the enzyme. For the other human NTPDase isoenzymes, we had to resort to recombinant expression. Human umbilical cord membrane preparations (250 ng) natively expressing high amounts of CD39, or the respective recombinant COS-7 cell membrane preparations expressing the appropriate NTPDase isoenzyme (ca. 100 ng of protein depending on enzyme activity) ([Sévigny et al., 1997]; [Lecka et al., 2013]) with or without inhibitor were preincubated at 37°C and gentle shaking (Eppendorf Thermomixer comfort at 500 rpm) for 5 min. The amount of enzyme preparation was adjusted to ensure 10–20% of substrate conversion. […] ([Kukulski et al., 2005]). After 15 min of incubation at 37°C with gentle shaking, the reaction was stopped by adding the detection reagents (20 µl malachite green solution, 0.6 mM, and 30 µl ammonium molybdate solution, 20 mM, in sulfuric acid, 1.5 M). The released (inorganic) phosphate was quantified after 20 min of gentle shaking at 25°C by measuring the absorption of the malachite green-phosphomolybdate complex at 600 nm using a BMG PheraStar FS plate reader (BMG Labtech GmbH, Ortenberg, Germany). The corrected absorption was calculated by subtracting the absorption of the negative control samples, which were incubated with denatured enzyme (90°C, 15 min), and the inhibition was calculated as follows:
(§2) % Inhibition=(B−T)/B*100%
(§3) where B is the average corrected absorption of the positive control without inhibitor and T the corrected absorption in the presence of test compound.
(§4) Full concentration-inhibition curves were determined with inhibitor concentrations ranging from 0.1 to 300 µM in the presence of 2% DMSO. Three independent experiments were performed (n = 3) and curves were calculated by the GraphPad Prism 8 software. The Ki value was calculated using the Cheng-Prusoff equation for competitive inhibitors: […]

NTPDase2 = biological target: T2, NTPDase2 (Homo sapiens, UniProt Q9Y5L3); assay: Malachite green assay for NTPDase2; type: biochemical; design: expressed in transfected cells; host or cells: COS-7 cell membrane preparations; conditions: for Ki: ATP 50 µM, recombinant COS-7 cell membrane preparation, read-out: Ki ± SEM
T2 sequence (Q9Y5L3 1-495): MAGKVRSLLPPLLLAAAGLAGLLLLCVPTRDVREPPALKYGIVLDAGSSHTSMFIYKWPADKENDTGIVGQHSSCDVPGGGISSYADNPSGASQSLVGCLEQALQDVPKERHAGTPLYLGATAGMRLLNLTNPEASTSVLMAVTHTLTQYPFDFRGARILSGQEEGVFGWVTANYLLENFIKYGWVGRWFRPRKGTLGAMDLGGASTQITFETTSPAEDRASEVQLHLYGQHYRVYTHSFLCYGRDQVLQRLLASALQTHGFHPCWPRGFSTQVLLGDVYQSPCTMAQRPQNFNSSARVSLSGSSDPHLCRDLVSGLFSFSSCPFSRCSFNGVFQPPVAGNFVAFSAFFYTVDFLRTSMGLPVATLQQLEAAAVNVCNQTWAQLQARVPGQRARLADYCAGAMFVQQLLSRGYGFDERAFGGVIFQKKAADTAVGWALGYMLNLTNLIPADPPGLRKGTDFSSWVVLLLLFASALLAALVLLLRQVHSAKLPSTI
Method: as §1, §2, §3, §4

Structure (SMILES)	Ki (NTPDase8) [µM]	% inhibition (NTPDase8) [%]	Ki (NTPDase2; NTPDase2) [µM]	% inhibition (NTPDase2; NTPDase2, test concentration not given) [%]	NTPDase2 inhibition (in words) (NTPDase2)
CCN(CC)c1ncnc2c1ncn2[C@@H]1O[C@H](COP(=O)(O)OP(=O)(O)C(Br)(Br)P(=O)(O)O)[C@@H](O)[C@H]1O [ARL67156, (Dibromo((((((2R,3S,4R,5R)-5-(6-(diethylamino)-9H-purin-9-yl)-3,4-dihydroxytetrahydrofuran-2-yl)methoxy)-(hydroxy)-phosphoryl)oxy)(hydroxy)phosphoryl)methyl)-phosphonic Acid, reference compound]	> 50	2	> 50	18	–
CCCCSc1nc2c(N)ncnc2n1[C@@H]1O[C@H](COP(=O)(O)OP(=O)(O)C(Br)(Br)P(=O)(O)O)[C@@H](O)[C@H]1O [Compound 31, (((((((2R,3S,4R,5R)-5-(6-Amino-8-(butylthio)-9H-purin-9-yl)-3,4-dihydroxytetrahydrofuran-2-yl)methoxy)(hydroxy)-phosphoryl)oxy)(hydroxy)phosphoryl)dibromomethyl)-phosphonic Acid]	> 50	2	22.2 ± 0.5	–	weakly inhibit
CCCCNc1nc2c(NC)ncnc2n1[C@@H]1O[C@H](COP(=O)(O)OP(=O)(O)C(Br)(Br)P(=O)(O)O)[C@@H](O)[C@H]1O [Compound 33, (Dibromo((((((2R,3S,4R,5R)-5-(8-(butylamino)-6-(methylamino)-9H-purin-9-yl)-3,4-dihydroxy-tetrahydrofuran-2-yl)methoxy)(hydroxy)phosphoryl)oxy)-(hydroxy)phosphoryl)methyl)-phosphonic Acid]	> 50	-11	78 ± 0.6	–	–
